Experiments:
Assay type in all cases: toxicity, cell-based
[1] = tested on: HEK-293T; experiment: Incucyte cell viability with HEK293T; conditions: human, 10 µM, compound concentration 10 uM
[2] = tested on: Fibroblast; experiment: Incucyte cell viability with human fibroblast; conditions: 10 µM, compound concentration 10 uM
[3] = tested on: U2OS; experiment: Incucyte cell viability with U2OS; conditions: human, 10 µM, compound concentration 10 uM
Also: unitless GR value; below 1 slowed growth and below 0 cell loss.

Row | Molecule | Growth Rate ([1]; 0 h, replicate number 1) | Growth Rate ([1]; 6 h, replicate number 1) | Growth Rate ([1]; 12 h, replicate number 1) | Growth Rate ([1]; 18 h, replicate number 1) | Growth Rate ([1]; 18 h, replicate number 2) | Growth Rate ([1]; 24 h, replicate number 1) | Growth Rate ([2]; 0 h, replicate number 2) | Growth Rate ([2]; 6 h, replicate number 1) | Growth Rate ([2]; 6 h, replicate number 2) | Growth Rate ([2]; 12 h, replicate number 1) | Growth Rate ([2]; 12 h, replicate number 2) | Growth Rate ([2]; 18 h, replicate number 2) | Growth Rate ([2]; 24 h, replicate number 1) | Growth Rate ([2]; 24 h, replicate number 2) | Growth Rate ([3]; 0 h, replicate number 2) | Growth Rate ([1]; 6 h, replicate number 2) | Growth Rate ([2]; 18 h, replicate number 1) | Growth Rate ([3]; 0 h, replicate number 1) | Growth Rate ([3]; 12 h, replicate number 1) | Growth Rate ([3]; 18 h, replicate number 1) | also measured
1 | CN[C@@H](C)C(=O)N[C@H]1CN(C(=O)CC(C)C)CC[C@H]2CC[C@@H](C(=O)NC(c3ccccc3)c3ccccc3)N2C1=O [XEVINAPANT] | 0.08 | 0.36 | 0.86 | 0.71 | 0.97 | 0.92 | 0.68 | -0.46 | 0.35 | 0.68 | 0.73 | 0.78 | 0.9 | 0.88 | 0.1 | – | – | – | – | – | –
2 | Cc1cccc(F)c1C(=O)Nc1cnc(-c2cc3c(cc2Cl)OC(F)(F)O3)cn1 [ZEGOCRACTIN] | – | -0.06 | 0.19 | 0.24 | 0.31 | 0.34 | -0.42 | – | -0.57 | -0.81 | 0.2 | 0.4 | 0.84 | 0.26 | -0.79 | -0.48 | 0.77 | 0.13 | 0.45 | 0.72 | Growth Rate ([1]; 12 h, replicate number 2): -0.06; Growth Rate ([3]; 6 h, replicate number 1): 0.26; Growth Rate ([3]; 6 h, replicate number 2): 0.28; Growth Rate ([3]; 12 h, replicate number 2): 0.78; Growth Rate ([3]; 18 h, replicate number 2): 0.9; Growth Rate ([3]; 24 h, replicate number 1): 0.8; Growth Rate ([3]; 24 h, replicate number 2): 0.92
3 | Cn1c(=O)n(CCCO)c(=O)c2c1nc(Oc1cccc(OC(F)(F)F)c1)n2Cc1ccc(Cl)cc1 [ZERENCOTREP] | 0.5 | 0.54 | 0.92 | 0.98 | – | – | – | -0.36 | -0.98 | -1 | 0.88 | 0.6 | – | 0.54 | -0.21 | 0.64 | – | – | 0.8 | 0.88 | Growth Rate ([1]; 0 h, replicate number 2): 0.33; Growth Rate ([3]; 24 h, replicate number 1): 0.94
4 | H-LVVYPWT-OH [SPINORPHIN] | 0.9 | 0.99 | – | – | – | – | -0.78 | -0.34 | -0.61 | -1 | 0.52 | 0.87 | 0.41 | 0.94 | -1 | – | 0.38 | 0.44 | 0.76 | 0.82 | Growth Rate ([1]; 0 h, replicate number 2): 0.94; Growth Rate ([2]; 0 h, replicate number 1): -0.25; Growth Rate ([3]; 6 h, replicate number 1): 0.61; Growth Rate ([3]; 6 h, replicate number 2): 0.08; Growth Rate ([3]; 12 h, replicate number 2): 0.43; Growth Rate ([3]; 18 h, replicate number 2): 0.66; Growth Rate ([3]; 24 h, replicate number 2): 0.92
